# Patent US20250075041A1, “COMPOSITIONS FOR SALTWATER-STABLE HYDROGEL ADHESIVES AND METHODS OF USE THEREOF” (Washington University, priority 2023, published 2025)
# Test: Solubility of copolymers and monomer
# Format: physicochemical
substance,measurement,value
Nb-TEG-ZnTPP [compound 22],solubility in H2O,not soluble in H2O
